The values that follow are results of earlier work, collected in US6511676B1 (priority 1999, dated 2003).

Molecules are shown by their SMILES.

Series [1] has as its system epithelial ovarian carcinoma. To be noted: oral, 61 patients with cis- or carboplatin resistance.
The subject of a further series is testicular cancers. To be noted: in vivo.

For `CN(C)c1nc(N(C)C)nc(N(C)C)n1` [hexamethylmelamine], in series [1], the objective response rate is on record as 14%.

With `N.N.[Cl][Pt][Cl]` [cisplatin, Cis-diamminedichloroplatinum(II)], the testicular cancers cured result in the series with testicular cancers is “More than 90%”.
